Experimental data from patent publication US12104178B2, “DHFR tunable protein regulation” (Obsidian Therapeutics, Inc., priority 2017, dated 2024).
Blank lines part the entries; values can stand above or below the molecule they belong to.

Experiments:
[1] = test system: HEK-293T cells; assay: IL15 western blot of DD IL15-IL15Ra, transient transfection; format: cell-based, human; details: 10 μM Trimethoprim or 1 μM Shield-1, 24 h
Experimental: To test ligand dependent IL15-IL15Ra production, 1 million HEK-293T cells were plated in a 6-well plate in growth media containing DMEM and 10 FBS and incubated overnight at 37° C., 5% CO2. […] Cells were harvested and IL15 levels are analyzed via western blotting using human IL15 antibody (Abcam, Cambridge, UK).

[2] = test system: HCT-116; assay: Surface expression of IL15-IL15Ra fusion constructs, PE-IL15Ra antibody FACS; format: cell-based, human; details: for Median Fluorescence Intensity, surface IL15-IL15Ra: 24 h
Experimental: Membrane bound-IL15-IL15Ra constructs (OT-IL15-008 to OT IL-15-011) were transduced into human colorectal carcinoma cell line, HCT-116 and stable integrants were selected with 2 μg of puromycin.
Surface expression of IL15-IL15Ra fusion constructs was examined by staining with PE-conjugated IL15Ra antibody (Cat no. 330207, Biolegend, San Diego, CA). The median fluorescence intensity obtained with the different constructs in the presence or absence of the corresponding ligand is presented in Table 53. The stabilization ratio was calculated as the fold change in fluorescence intensity in ligand treated samples compared to treatment with DMSO (i.e. in the absence of ligand) with the same construct. The destabilization ratio was calculated as the fold change in fluorescence intensity in the DD regulated constructs compared to the constitutive construct (OT-IL15-008) in the absence of the ligand. Destabilization ratios less than 1 and stabilization ratios greater than 1 are desired in DDs.
Membrane bound-IL15-IL15Ra constructs (OT-IL15-008 to OT IL15-011) were transduced into human colorectal carcinoma cell line, HCT-116 and stable integrants were selected with 2 μg of puromycin.
Surface expression of IL15-IL15Ra fusion constructs was examined by staining with PE-conjugated IL15Ra antibody (Cat no. 330207, Biolegend, San Diego, CA). The median fluorescence intensity obtained with the different constructs in the presence or absence of the corresponding ligand is presented in Table 55.
The stabilization ratio was calculated as the fold change in GFP intensity in ligand treated samples compared to treatment with DMSO (i.e. in the absence of ligand) with the same construct. The destabilization ratio was calculated as the fold change in GFP intensity in the DD regulated constructs compared to the constitutive construct (OT-IL15-008) in the absence of the ligand. Destabilization ratios less than 1 and stabilization ratios greater than 1 are desired in DDs.

[3] = test system: NK-92 cells; assay: NK-92 activation markers with IL12 (Table 83); format: cell-based; details: IL12 10 ng/ml, 18 h
Experimental: The dependency of the NK-92 cells on cytokines for activation was tested. […] The cells were cultured for 18 hours in the presence of IL12 (10 ng/ml) or varying concentrations of IL15 (100 ng/ml, 20 ng/ml, 4 ng/ml, 0.8 ng/ml, 0.16 ng/ml, 0.032 ng/ml, 0.0064 ng/ml and 0.00128 ng/ml). NK-92 cell activation in response to IL15 and IL12 treatment was evaluated by FACS analysis using a panel of markers whose increased expression is associated with NK activation. These include NKG2D, CD71, CD69; chemokine receptors such as CCR5, CXCR4, and CXCR3, Perforin, Granzyme B and Interferon gamma (IFNg). Prior to FACS analysis for IFNg, cells were cultured for 4 hours with Brefeldin A. NK cells respond to external stimuli such as cytokines in their environment through the phosphorylation of proteins JAK/STAT, ERK, and p38/MAPK pathways which are important for cell activation, signaling and differentiation pathways. The phosphorylation of AKT, STAT3 and STAT5 in response to cytokine addition was measured by FACS. Since phosphorylation events are transient NK-92 cells were treated with the cytokines for 15 or 60 minutes, prior to the analysis.

[4] = test system: Human T cells; assay: IL12 induced differentiation of human T cells, IFN gamma / CD3 flow cytometry; format: cell-based; details: IL12 treated (untreated 0.21)
Experimental: IL12 promotes the differentiation of naïve T cells into Th1 cells which results in the secretion of IFN gamma from T cells. Human T cells were treated with IL12 or left untreated and analyzed by flow cytometry for the expression of IFN gamma and T cell marker CD3.

[5] = test system: T cells; assay: IL12/IL2 effect on T cell expansion and IFNgamma positive CD4+/CD8+ T cells; format: cell-based, human
Text: The goal of the study was to determine the T cell stimulation regimen and dose of IL12 needed to maximize T cell persistence and T cell differentiation in vitro, to mimic an in vivo adoptive cell transfer therapy regimen. The study recapitulates the design of the adoptive cell therapy regimen wherein the T cells were initially exposed to the antigen in vitro which results in activation followed by a resting phase and finally in vivo transfer where the T cells encounter the antigen again. T cells were stimulated CD3/CD28 beads or soluble CD3/CD28 on day 0 and the CD3/CD28 stimulus was washed off at the end of 48 hours. Cells were treated with a dose of IL12 ranging from 0.01-1000 ng/mL. On day 9, the Th1 phenotype of the cells was evaluated by examining the frequency of IFNgamma positive CD4+ cells and CD8+ cells. On day 14, cells were divided into two groups—one group received a second CD3/CD28 stimulation and a second group that was not stimulated. On day 16, the Th1 phenotype was evaluated in both groups using FACS.
To test the requirement of IL2 and IL12 for T cells expansion and activation, T cells were stimulated with soluble CD3/CD28, CD3/CD28 Dynabeads or left unstimulated for two days. Each of these groups was further split into two sub groups. One sub group was treated with IL2 and 100 ng/ml of IL12 while the second sub group was treated with IL2 only for the duration of the stimulation. For the soluble CD3/CD28 stimulated cells, a third subgroup that was only treated with 100 ng/ml of IL12 was also included.
The effect of IL12 on T cell activation was measured by determining the frequency of IFNgamma positive CD4+ and CD8+ T cells. IFNg is produced by activated T cells. Three different stimulation protocols were used. In the first protocol, cells were stimulated with CD3/CD28 dynabeads for 2 days, following which the beads were washed off and the cells were treated with varying concentrations of IL12 for 7 days (from day 2 to day 9). At day 9, cells were restimulated with soluble CD3/CD28 and the frequency of IFNgamma positive cells was determined by FACS. […] In the second protocol, following 2 day CD3/CD28 dynabeads stimulation, T cells were maintained in culture for a longer duration of 14 days i.e. from day 2 to day 16. At day 16, cells were restimulated with soluble CD3/CD28. At day 16, the frequency of IFNgamma positive cells was measured. […] In the third protocol, T cells were initially stimulated for 2 days with CD3/CD28 dynabeads and IL2, followed by treatment with IL2 only for 9 days (i.e. from day 2 to day 11), followed by IL12 treatment for 2 to 5 days. In the last two days of the experiment, cells were also restimulated with soluble CD3/CD28. IFNgamma positive CD4 and CD8 cells were measured using FACS. The third protocol mimics the environment that is presented to T cells in adoptive cell therapy, both during in vitro transduction and T cells expansion as well as the in vivo.

[6] = test system: hDHFR; assay: Immunoblot of hDHFR WT and mutants after TMP, MTX or DMSO; format: cell-based, human; details: MTX or DMSO 48 h
Text: The results were consistent using both the AcGFP antibody as well as the hDHFR antibody.

[7] = test system: NIH 3T3 cells; assay: hDHFR mutant-GFP reporter stability with DMSO, MTX or TMP (FACS); format: cell-based; details: for GFP intensity Fold Change vs DMSO: 48 h; for Destabilizing mutation co-efficient: GFP intensity vs hDHFR (WT); for Destabilizing mutation co-efficient / Median Fluorescence signal with DMSO: no ligand; for Median Fluorescence signal with DMSO: hDHFR-GFP, DMSO 48 h
Text: Known destabilizing mutations in E. coli DHFR (ecDHFR) were mapped onto the structure of human DHFR (hDHFR) and corresponding mutations in wild type hDHFR protein were generated using site directed mutagenesis. hDHFR mutants were then fused to a linker, GGSGGG (SEQ ID NO: 2728) and a GFP reporter gene at the N terminus. […] The hDHFR N terminus mutant construct cloned into pLVX. IRES. The reporter constructs were transfected into NIH 3T3 cells. […] DMSO was used as control. Fluorescence signal was measured by FACS and median fluorescence signal intensity was calculated. The destabilizing mutation co-efficient was calculated as the fold change in GFP intensity in the hDHFR mutant constructs compared to the hDHFR (WT) in the absence of the ligand. Destabilizing mutation co-efficients less than 1 are desired in DDs.
Percentage of GFP positive cells as a measure of ligand dependent DD stabilization in each transfection was calculated using FACS Calibur™ (see Table 46).

[8] = test system: HEK 293T cells; assay: GFP-hDHFR C terminus fusions, MFI (FACS); format: cell-based, human; details: 1 μM MTX or 50 μM TMP, 48 h
Experimental: DDs may be positioned upstream or downstream of the payload within an SRE. hDHFR mutants generated by structure guided mutagenesis as discussed in example 2 were fused at the C-terminus of GFP to test if the hDHFR mutants can destabilize proteins of interest when fused to the C-terminus of the protein of interest. A linker, GGSGGG (SEQ ID NO. 6413) was placed between GFP and hDHFR and cloned into pLVX.IRES. Puro.
Following the incubation, median fluorescence intensity (MFI) was measured using FACS.

Molecule: OT-IL15-006: IL15-IL15Ra fusion with ecDHFR (R12Y, E129K) DD
- IL15 stabilization by western blot (FIG. 24A) [1]: modest ligand dependent stabilization of IL15
- Median Fluorescence Intensity, surface IL15-IL15Ra ([2]; 10 μM TMP): 2978
- Median Fluorescence Intensity, surface IL15-IL15Ra ([2]; DMSO): 764
- Stabilization ratio ([2]; TMP vs DMSO): 3.90
- Destabilization ratio ([2]; vs constitutive OT-IL15-008, no ligand): 0.14

- EC50, IFNgamma positive cells ([5]; first protocol (7 days IL12), CD8 cells): 0.05 ng/mL
- EC50, IFNgamma positive cells ([5]; second protocol (14 days), CD4 cells): 0.012 ng/mL
- EC50, IFNgamma positive cells ([5]; second protocol (14 days), CD8 cells): 0.065 ng/mL
- EC50, IFNgamma positive cells ([5]; third protocol, IL12 final 5 days, CD4 cells): 0.024 ng/mL
- EC50, IFNgamma positive cells ([5]; third protocol, IL12 final 5 days, CD8 cells): 0.04 ng/mL
Molecule: IL12: cytokine added to T cells or NK-92 cells
- Fold change in MFI vs untreated, CCR5 [3]: 1.60
- Fold change in MFI vs untreated, Granzyme [3]: 1.87
- Fold change in MFI vs untreated, IFNg [3]: 1.74
- Fold change in MFI vs untreated, Perforin [3]: 1.67
- Fold change vs untreated, IFNg (supernatant) [3]: 666.15
- Percentage of IFN gamma positive T cells [4]: 22.3%
- Requirement for T cell expansion (FIG. 37A) ([5]; 14 days, CD3/CD28 stimulation): may be dispensable
- IL12 dose causing Th1-skewing and IFN gamma production ([5]; T cells in vitro, day 16): 0.1 ng/mL

B1: OT-hDHFRN-007: hDHFR L94A, T147A-GFP (protein, UniProt P00374 1-187, looked up, variant L94A T147A)
Dihydrofolate reductase: MVGSLNCIVAVSQNMGIGKNGDLPWPPLRNEFRYFQRMTTTSSVEGKQNLVIMGKKTWFSIPEKNRPLKGRINLVLSRELKEPPQGAHFLSRSADDALKLTEQPELANKVDMVWIVGGSSVYKEAMNHPGHLKLFVTRIMQDFESDAFFPEIDLEKYKLLPEYPGVLSDVQEEKGIKYKFEVYEKND
modifications: GFP fusion
notes: hDHFR L94A, T147A-GFP
- Protein level stabilization (immunoblot, FIG. 19) [6]: stabilization exclusively with MTX
- % GFP positive cells ([7]; 1 μM MTX): 40.7%
- GFP intensity Fold Change vs DMSO ([7]; 1 μM MTX): 4.46
- % GFP positive cells ([7]; 10 μM TMP): 0.52%
- GFP intensity Fold Change vs DMSO ([7]; 10 μM TMP): 1.00
- % GFP positive cells ([7]; DMSO): 0.26%
- Destabilizing mutation co-efficient [7]: 0.15
- Median Fluorescence signal with DMSO [7]: 2.67

B2: OT-hDHFRN-008: hDHFR G21T, Y122I-GFP (protein, UniProt P00374 1-187, looked up, variant G21T Y122I)
Dihydrofolate reductase: MVGSLNCIVAVSQNMGIGKNTDLPWPPLRNEFRYFQRMTTTSSVEGKQNLVIMGKKTWFSIPEKNRPLKGRINLVLSRELKEPPQGAHFLSRSLDDALKLTEQPELANKVDMVWIVGGSSVIKEAMNHPGHLKLFVTRIMQDFESDTFFPEIDLEKYKLLPEYPGVLSDVQEEKGIKYKFEVYEKND
modifications: GFP fusion
notes: hDHFR G21T, Y122I-GFP
- Protein level stabilization (immunoblot, FIG. 19) [6]: stabilization exclusively with MTX
- % GFP positive cells ([7]; 1 μM MTX): 86.6%
- GFP intensity Fold Change vs DMSO ([7]; 1 μM MTX): 14.53
- % GFP positive cells ([7]; 10 μM TMP): 2.92%
- GFP intensity Fold Change vs DMSO ([7]; 10 μM TMP): 1.30
- % GFP positive cells ([7]; DMSO): 0.61%
- Destabilizing mutation co-efficient [7]: 0.18
- Median Fluorescence signal with DMSO [7]: 3.27

B3: OT-hDHFRC-015: GFP-hDHFR (A125F, Y122I) (protein, UniProt P00374 1-187, looked up, variant A125F Y122I)
Dihydrofolate reductase: MVGSLNCIVAVSQNMGIGKNGDLPWPPLRNEFRYFQRMTTTSSVEGKQNLVIMGKKTWFSIPEKNRPLKGRINLVLSRELKEPPQGAHFLSRSLDDALKLTEQPELANKVDMVWIVGGSSVIKEFMNHPGHLKLFVTRIMQDFESDTFFPEIDLEKYKLLPEYPGVLSDVQEEKGIKYKFEVYEKND
modifications: N-terminal GFP fusion
- MFI change over DMSO, GFP-hDHFR C terminus fusion (FIG. 20) [8]: several fold increase in MFI over DMSO with both MTX and TMP
